Reference: patent publication EP2608671B1, “COMPOUNDS FOR TREATMENT OF CANCER” (Gtx, Inc., priority 2010, dated 2012)
Where two headings read alike, the source gives them in different places.

Legend:
DU 145 = experiment: cells; details: Homo sapiens, DU-145, 96 h, read-out: IC50 ± SEM (nM), DU 145
LNCaP = experiment: cells; details: Homo sapiens, 96 h, read-out: IC50 ± SEM (nM), LNCaP
PC-3 = experiment: cells; details: Homo sapiens, PC-3, 96 h, read-out: IC50 ± SEM (nM), PC-3
Excerpt: (§1) The only compounds which belong to the invention are the ones falling under the scope of formula (XI).
Cells were stained with SRB solution.
Cells. […] Cells between the third and fifth passages were used for experiments.
Cell growth inhibition studies. […] Cells were stained with sulphorhodamine B (SRB) solution.

B16-F1 = experiment: SRB cell growth inhibition (cytotoxicity) assay; type: cell-based, mouse
Excerpt: as §1

A375 = experiment: SRB cell growth inhibition (cytotoxicity) assay; type: cell-based, human
[1] = system: prostate cancer cell lines (LNCaP, DU 145, PC-3, PPC-1); experiment: SRB cytotoxicity, prostate cancer cell panel (text summaries); type: cell-based; details: Homo sapiens, read-out: IC50 against prostate cancer cells
Excerpt: as §1

PPC-1 = experiment: cells; details: Homo sapiens, PPC-1, 96 h, read-out: IC50 ± SEM (nM), PPC-1
[2] = system: melanoma cell lines (A375, WM-164, B16-F1) and prostate cancer cell lines (LNCaP, DU 145, PC-3, PPC-1); experiment: SRB cytotoxicity, melanoma and prostate cell panel (averages); type: cell-based; details: for IC50: Prostate cell, Table 2, read-out: IC50 range over tested melanoma and prostate cell lines; for antiproliferative activity: summary of Table 3
Excerpt: as §1

[3] = rat; for CL (mL/min/kg), systemic clearance / Vss (L/kg), volume of distribution: IV, […] (1h, 2r), 5 mg/kg (5Ha, 5Hc); for F (%), percent oral bioavailability: Table 4, 10 mg/kg
OVCAR-8 = experiment: SRB growth inhibition, MDR model parent line; type: cell-based, human; details: Homo sapiens, OVCAR-8; Table 5A; read-out: IC50 (nM), OVCAR-8
NCI/ADR-RES = experiment: SRB growth inhibition, P-gp over-expressing MDR line; type: cell-based, human
[4] = Mus musculus, B16-F1; read-out: IC50 ± SEM (nM), B16-F1
[5] = Homo sapiens, A-375, 96 h; read-out: IC50 ± SEM (nM), A375

Structure (SMILES) | IC50 (DU 145) | IC50 (LNCaP) | IC50 (PC-3) | IC50 (B16-F1; [4]) | IC50 (A375; [5]) | IC50 (PPC-1) | further results
COc1cc(C(=O)c2cc(-c3ccccc3)ncn2)cc(OC)c1OC [1b, (6-Phenylpyrimidin-4-yl)(3,4,5-trimethoxyphenyl)methanone] | 6900 nM | 7000 nM | 8300 nM | > 30000 nM | > 30000 nM | 3700 nM | IC50 ([1]; summary of Table 1): 3700 to 8300 nM
COc1cc(C(=O)c2csc(-c3ccccc3)c2)cc(OC)c1OC [1f, (5-Phenylthiophen-3-yl)(3,4,5-trimethoxyphenyl)methanone] | 26 nM |  | 12 nM | 72 ± 15 nM | 15 ± 6 nM | 15 nM | IC50 ([1]; summary over LNCaP, PC-3, DU-145, PPC-1): 12 to 35 nM
COc1cc(/C(=N/O)c2csc(-c3ccccc3)n2)cc(OC)c1OC [2e-cis, (Z)-(2-Phenylthiazol-4-yl)(3,4,5-trimethoxyphenyl)methanone oxime] | 102 nM | 189 nM | 120 nM | 300 ± 100 nM | 200 ± 100 nM | 160 nM | IC50 [2]: 100 to 300 nM
COc1cc(/C(=N\O)c2csc(-c3ccccc3)n2)cc(OC)c1OC [2e-trans, (E)-(2-Phenylthiazol-4-yl)(3,4,5-trimethoxyphenyl)methanone oxime] | > 10000 nM | > 10000 nM | > 10000 nM | 11400 ± 2100 nM | 7800 ± 1200 nM | > 10000 nM | IC50 [2]: > 10000 nM
CNCc1ccc(-c2nc(C(=O)c3cc(OC)c(OC)c(OC)c3)cs2)cc1.Cl [2s, (2-(4-((Methylamino)methyl)phenyl)thiazol-4-yl)(3,4,5-trimethoxyphenyl)methanone hydrochloride] | ~10000 nM | 114 ± 80 nM | > 10000 nM |  |  | ~1000 nM | IC50 (B16-F1; Mus musculus, B16-F1, read-out: IC50 ± SEM (nM), B16-F1): > 10000 nM; antiproliferative activity [2]: abrogated activity; IC50 (A375; Homo sapiens, A-375, 96 h, read-out: IC50 ± SEM (nM), A375): > 10000 nM
COc1cc(C(=O)c2csc(-c3ccc(CN(C)C)cc3)n2)cc(OC)c1OC.Cl [2u, (2-(4-((Dimethylamino)methyl)phenyl)thiazol-4-yl)(3,4,5-trimethoxyphenyl)methanone hydrochloride] | > 10000 nM | 1020 ± 200 nM | > 10000 nM | > 10000 nM | > 10000 nM | > 10000 nM | antiproliferative activity [2]: abrogated activity
COc1cc(C(=O)c2csc(Nc3ccccc3)n2)cc(OC)c1OC.Cl [5Ha, (2-(Phenylamino)thiazol-4-yl)(3,4,5-trimethoxyphenyl)methanone hydrochloride salt] |  |  |  |  |  |  | CL (mL/min/kg), systemic clearance [3]: 17 ± 3 mL/min/kg; Vss (L/kg), volume of distribution [3]: 1.4 ± 0.2 L/kg; F (%), percent oral bioavailability [3]: 11%
COc1cc(C(=O)c2csc(Nc3ccc(F)cc3)n2)cc(OC)c1OC.Cl [5Hc, (2-(p-Fluorophenylamino)thiazol-4-yl)(3,4,5-trimethoxyphenyl)methanone hydrochloride salt] |  |  |  |  |  |  | CL (mL/min/kg), systemic clearance [3]: 13 ± 2 mL/min/kg; Vss (L/kg), volume of distribution [3]: 1.4 ± 0.2 L/kg; increased exposure (AUC) by the oral route as compared to 1h ([3]; in vivo, po): more than 4.3 fold; F (%), percent oral bioavailability [3]: 21%
COc1cc(C(=O)c2csc(Nc3ccc(C)cc3)n2)cc(OC)c1OC [5b, (2-(p-Tolylamino)thiazol-4-yl)(3,4,5-trimethoxyphenyl)methanone] |  |  |  |  |  |  | IC50 (OVCAR-8): 28 nM; IC50 (NCI/ADR-RES; Homo sapiens, NCI/ADR-RES, P-gp over-expressed MDR cell line, Table 5A, read-out: IC50 (nM), NCI/ADR-RES): 21 nM; Resistance factor (NCI/ADR-RES; NCI/ADR-RES vs OVCAR-8, 5760 min): 0.8
